Experimental data published in publication PMC12396409, “Screening and hit evaluation of a microbial metabolite library against the pathogenic Plasmodium falciparum and Toxoplasma gondii parasites” (International Journal for Parasitology: Drugs and Drug …, 2025).
Where a SMILES comes first, the peptide text is derived from it. Bridges are numbered along the chain shown (N, C = ends). The star is where a group is joined. X2 = CCCCCCCCCCCC(O)CC(=O)*

Columns and labels:
[1] = system: P. falciparum 3D7 parasites; assay: P. falciparum growth inhibition assay, 1-cycle (72 h treatment), SYBR DNA staining (library screen at 2 μg/mL and dose-response); format: cell-based, Plasmodium falciparum; conditions: P. falciparum 3D7, 72 h, parasite screen at 2 μg/mL, % growth; for Pf_72h_%Growth_Rep1: replicate 1; for Pf_72h_%Growth_Rep2: replicate 2
[2] = system: P. falciparum 3D7 parasites; assay: P. falciparum growth inhibition assay, 2-cycle (120 h treatment), delayed-death screen and dose-response; format: cell-based, Plasmodium falciparum; conditions: P. falciparum 3D7, 120 h, parasite screen at 2 μg/mL, % growth; for Pf_120h_%Growth_Rep1: replicate 1; for Pf_120h_%Growth_Rep2: replicate 2
[3] = system: T. gondii RH strain (RH-Tub-eYFP) tachyzoites; assay: microbe, parasite or virus in culture; format: cell-based, Toxoplasma gondii; conditions: T. gondii, 72 h, parasite screen at 2 μg/mL, % growth; for Tg_72h_%Growth_Rep1: replicate 1; for Tg_72h_%Growth_Rep2: replicate 2

Compound	Pf_72h_%Growth_Rep1 [1] [%]	Pf_72h_%Growth_Rep2 [1] [%]	Pf_120h_%Growth_Rep1 [2] [%]	Pf_120h_%Growth_Rep2 [2] [%]	Tg_72h_%Growth_Rep1 [3] [%]	Tg_72h_%Growth_Rep2 [3] [%]
CC1=C\[C@@H](O)CC(=O)Cc2nc(co2)C(=O)N2CCC=C2C(=O)O[C@H](C(C)C)[C@H](C)/C=C/C(=O)NC\C=C\1 [BIA-O1131]	59.89	79.42	16.87	26.94	125.71	88.67
CNC1CC2OC(C)(C1OC)n1c3ccccc3c3c4c(c5c6ccccc6n2c5c31)C(=O)NC4=O (stereo not drawn) [BIA-O1137]	5.55	3.48	5.90	15.39	57.26	18.54
C[C@@H]1Cc2c(Cl)cc(C(=O)N[C@@H](Cc3ccccc3)C(=O)O)c(O)c2C(=O)O1 [BIA-O1195]	84.32	95.25	103.82	136.40	120.41	95.09
C[C@@H]1Cc2ccc(C(=O)N[C@@H](Cc3ccccc3)C(=O)O)c(O)c2C(=O)O1 [BIA-O1196]	83.68	90.59	89.68	126.27	126.36	89.16
CC(C)=CCCC(C)C1CCC2(C)CC3C(C(=O)CC3(C)O)C(C=O)=CCC12 (stereo not drawn) [BIA-O1199]	-0.50	-3.29	3.94	138.56	7.63	89.80
CN(C)[C@@H]1C(O)=C(C(N)=O)C(=O)[C@@]2(O)C(O)=C3C(=O)c4c(O)cccc4[C@@](C)(O)[C@H]3[C@H](O)[C@@H]12 [BIA-O1336]	45.04	49.67	15.40	14.90	105.05	93.22
CCCCCCCCCCCC(O)CC(=O)NC(CC(C)C)C(=O)NC(CCC(=O)O)C(=O)NC1C(=O)NC(C(C)CC)C(=O)NC(CC(C)C)C(=O)NC(CO)C(=O)NC(CC(C)C)C(=O)NC(CC(C)C)C(=O)NC(CO)C(=O)NC(C(C)C)C(=O)OC1C (stereo not drawn) [BIA-O1430] (X2-LETILSLLSV; ester 3-C; configuration not given here)	78.47	76.87	85.46	72.71	121.77	92.49
CCCCCCCCCCCC(O)CC(=O)NC(CC(C)C)C(=O)NC(CCC(=O)O)C(=O)NC1C(=O)NC(C(C)C)C(=O)NC(CC(C)C)C(=O)NC(CO)C(=O)NC(CC(C)C)C(=O)NC(CC(C)C)C(=O)NC(CO)C(=O)NC(C(C)C)C(=O)OC1C (stereo not drawn) [BIA-O1431] (X2-LETVLSLLSV; ester 3-C; configuration not given here)	80.05	103.50	94.38	109.58	138.54	91.95
CCCCCCCC(=O)N[C@H]1CCOC1=O [BIA-O1496]	81.24	83.86	82.04	138.56	127.37	91.78
CCCCCCCCCCCCCCCCCC(=O)N[C@H]1CCOC1=O [BIA-O1501]	84.33	54.35	92.72	140.11	147.08	83.28
NC(=O)c1cccc2nc3ccccc3nc12 [BIA-O1527]	73.74	112.20	104.27	111.59	111.76	91.86
CCOC(=O)[C@H](Cc1ccccc1)NC(=O)c1cc(Cl)c2c(c1O)C(=O)O[C@H](C)C2 [BIA-O1589]	85.35	104.78	89.48	144.99	74.06	66.00
Cc1cc(O)cc(O)c1C(=O)O [BIA-O1657]	83.41	79.75	95.39	131.31	114.94	95.01
COc1cc(C)c(C(=O)O)c(OC)c1 [BIA-O1659]	84.80	98.06	91.75	145.28	135.87	85.39
O=C1Cc2ccccc2N1 [BIA-O1735]	82.92	80.95	73.62	127.66	124.39	90.71
COc1cc(O)c2c(c1)/C=C/C[C@H](O)[C@H](O)C(=O)/C=C/C[C@H](C)OC2=O [BIA-O1897]	68.65	68.31	71.81	72.01	58.83	79.20
CCCC[C@H](O)[C@@H]1CC(OC)=CC(=O)O1 [BIA-P1067]	81.23	52.23	77.65	111.54	91.14	92.83
CC=C(C)C(O)C(C)C=C(C)C=CCC(C)=CCc1nc(OC)c(OC)c(O)c1C (stereo not drawn) [BIA-P1069]	80.36	61.30	92.39	102.66	120.41	75.10
Cc1ncc(-c2c[nH]c3ccccc23)o1 [BIA-P1070]	82.71	88.10	92.74	139.06	139.44	88.28
Cn1c(=O)/c(=C/c2ccccc2)[nH]c(=O)/c1=C/c1ccccc1 [BIA-P1156]	84.26	90.89	81.04	137.39	116.90	94.03
CC1CC=CC=CC=CC=CC(OC2OC(C)C(O)C(N)C2O)CC2OC(O)(CC(O)CC3OC3C=CC(=O)O1)CC(O)C2C(=O)O (stereo not drawn) [BIA-P1210]	82.66	61.24	62.24	79.36	91.98	100.38
OC[C@H]1O[C@@H](n2cnc3c2N=CNC[C@H]3O)C[C@@H]1O [BIA-P1273]	69.65	72.25	57.41	140.11	120.62	91.66
Oc1cc(O)cc(O)c1 [BIA-P1379]	72.55	29.88	15.44	11.00	123.57	91.75
